How the values were obtained:
Recombinant human FGFR2 = Recombinant human FGFR2 (Homo sapiens, UniProt P21802); assay: Transcreener Kinase Assay of FGFR2; type: biochemical; conditions: read-out: FGFR2 (FP) IC50
SNU-16 = assay: Cellular Proliferation Assay (Cell Counting Kit-8), SNU-16; type: cell-based; conditions: Homo sapiens, SNU-16 cells, 72 hours
Summary of the method: (§1)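 Seeding was 30,000 (KG-1), 5,000 (SNU-16) or 1,000 (RT-112) cells per well, with compound added 24 h later. Dilutions were prepared as an 8-point series of 10 to 0.004 μM in 5% DMSO, before addition to wells.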

RT-112 = assay: Cellular Proliferation Assay (Cell Counting Kit-8), RT-112; type: cell-based; conditions: Homo sapiens, RT-112 cells, 72 hours
Summary of the method: as §1

Recombinant human FGFR1 = Recombinant human FGFR1 (Homo sapiens, UniProt P11362); assay: Transcreener Kinase Assay of FGFR1; type: biochemical; conditions: read-out: FGFR1 (FP) IC50
Chain of Recombinant human FGFR1 (P11362 22-822): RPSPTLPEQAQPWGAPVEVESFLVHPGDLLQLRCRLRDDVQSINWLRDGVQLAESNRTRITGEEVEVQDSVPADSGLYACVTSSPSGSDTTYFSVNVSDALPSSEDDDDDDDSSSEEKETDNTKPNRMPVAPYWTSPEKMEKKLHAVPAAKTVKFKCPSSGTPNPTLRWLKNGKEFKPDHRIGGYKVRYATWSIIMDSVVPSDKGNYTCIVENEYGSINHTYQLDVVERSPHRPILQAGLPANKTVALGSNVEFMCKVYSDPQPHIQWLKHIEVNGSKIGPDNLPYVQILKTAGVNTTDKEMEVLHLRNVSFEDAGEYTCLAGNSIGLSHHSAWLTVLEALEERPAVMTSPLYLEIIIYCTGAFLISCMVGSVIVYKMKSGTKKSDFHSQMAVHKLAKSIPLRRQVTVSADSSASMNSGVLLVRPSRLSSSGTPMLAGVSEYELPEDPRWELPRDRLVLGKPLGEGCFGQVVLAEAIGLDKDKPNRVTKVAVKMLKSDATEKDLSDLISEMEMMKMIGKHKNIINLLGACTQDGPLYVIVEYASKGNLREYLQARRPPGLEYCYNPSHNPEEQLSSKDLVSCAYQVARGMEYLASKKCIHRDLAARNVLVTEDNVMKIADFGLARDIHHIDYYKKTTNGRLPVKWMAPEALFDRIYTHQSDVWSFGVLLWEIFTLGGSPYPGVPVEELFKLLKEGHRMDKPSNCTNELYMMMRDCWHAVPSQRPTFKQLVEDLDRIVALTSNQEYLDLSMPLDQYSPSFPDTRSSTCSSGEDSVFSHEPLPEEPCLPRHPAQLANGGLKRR

KG-1 = assay: Cellular Proliferation Assay (Cell Counting Kit-8), KG-1; type: cell-based; conditions: Homo sapiens, KG1 cells, 72 hours
Summary of the method: as §1

FGFR3 kinase = FGFR3 kinase (Homo sapiens, UniProt P22607); assay: Z-Lyte Kinase Assay of FGFR3; type: biochemical
Chain of FGFR3 kinase (P22607 23-806): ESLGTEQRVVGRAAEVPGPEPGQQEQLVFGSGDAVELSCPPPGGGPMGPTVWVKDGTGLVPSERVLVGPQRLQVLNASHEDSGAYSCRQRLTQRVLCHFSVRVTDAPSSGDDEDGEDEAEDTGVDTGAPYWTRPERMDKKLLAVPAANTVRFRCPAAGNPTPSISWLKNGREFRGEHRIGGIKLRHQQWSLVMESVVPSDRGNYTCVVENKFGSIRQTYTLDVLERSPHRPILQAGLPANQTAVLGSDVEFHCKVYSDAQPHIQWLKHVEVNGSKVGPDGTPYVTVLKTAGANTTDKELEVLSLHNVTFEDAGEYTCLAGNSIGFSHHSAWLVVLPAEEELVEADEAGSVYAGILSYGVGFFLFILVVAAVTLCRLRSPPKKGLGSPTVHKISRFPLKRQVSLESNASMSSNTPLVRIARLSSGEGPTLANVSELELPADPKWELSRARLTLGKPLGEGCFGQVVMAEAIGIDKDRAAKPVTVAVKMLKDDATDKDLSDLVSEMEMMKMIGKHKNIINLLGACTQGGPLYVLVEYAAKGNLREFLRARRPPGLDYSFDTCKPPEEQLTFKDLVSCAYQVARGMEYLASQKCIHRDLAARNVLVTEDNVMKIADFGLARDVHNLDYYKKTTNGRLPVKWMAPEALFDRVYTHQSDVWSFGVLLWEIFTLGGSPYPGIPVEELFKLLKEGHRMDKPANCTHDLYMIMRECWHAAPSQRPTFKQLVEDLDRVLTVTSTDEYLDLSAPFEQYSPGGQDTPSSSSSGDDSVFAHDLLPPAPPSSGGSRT
Summary of the method: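 Kinase at 0.7 μg/ml with 4 μM Z-LYTE Tyr 4 peptide and ATP diluted to 300 uM (working solution, 1.33× buffer); compounds 1–0.00046 μM, 2% DMSO final. Kinase reaction and development each 1 h at RT (25-30[…]); coumarin (445 nm) and fluorescein (520 nm) emission read, inhibition from % phosphorylation.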

Chain of Recombinant human FGFR2 (P21802 22-821): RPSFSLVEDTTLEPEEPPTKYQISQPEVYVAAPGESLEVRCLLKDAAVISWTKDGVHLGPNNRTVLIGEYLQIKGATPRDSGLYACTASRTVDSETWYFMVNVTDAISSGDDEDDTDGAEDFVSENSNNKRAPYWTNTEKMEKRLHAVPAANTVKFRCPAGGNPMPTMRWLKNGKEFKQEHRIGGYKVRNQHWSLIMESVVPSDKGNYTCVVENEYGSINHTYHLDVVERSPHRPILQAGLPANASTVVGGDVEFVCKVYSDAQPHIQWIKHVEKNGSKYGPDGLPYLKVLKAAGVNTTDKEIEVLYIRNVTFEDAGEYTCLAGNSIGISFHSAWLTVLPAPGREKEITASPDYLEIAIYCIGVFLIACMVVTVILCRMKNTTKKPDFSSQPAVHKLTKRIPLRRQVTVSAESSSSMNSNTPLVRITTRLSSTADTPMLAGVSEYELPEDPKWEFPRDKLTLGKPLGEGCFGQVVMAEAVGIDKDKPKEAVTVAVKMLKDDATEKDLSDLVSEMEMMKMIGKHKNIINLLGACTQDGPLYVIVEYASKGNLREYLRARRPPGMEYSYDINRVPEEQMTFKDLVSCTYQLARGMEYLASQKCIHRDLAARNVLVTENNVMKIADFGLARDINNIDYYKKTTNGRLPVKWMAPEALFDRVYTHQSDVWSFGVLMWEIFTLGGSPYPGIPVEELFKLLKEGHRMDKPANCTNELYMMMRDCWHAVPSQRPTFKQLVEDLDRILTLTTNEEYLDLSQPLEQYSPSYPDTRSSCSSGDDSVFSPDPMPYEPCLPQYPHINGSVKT

Row | SMILES | IC50 (Recombinant human FGFR2) | IC50 (SNU-16) | IC50 (RT-112) | IC50 (Recombinant human FGFR1) | IC50 (KG-1) | IC50 (FGFR3 kinase)
1 | COc1cc(C(=O)NC2CC2)cc(CCc2cnc(Nc3cnn(C)c3)nc2)c1Cl [Compound 157] | 0.01 µM | 0.048 µM | 0.254 µM | 0.02 µM | 0.048 µM | 0.019 µM
2 | CNC(=O)c1cc(CCc2cnc(Nc3cnn([C@@H]4CCCNC4)c3)nc2)c(F)c(OC)c1 [Compound 159, (R)-4-fluoro-3-methoxy-N-methyl-5-(2-(2-(1-(piperidin-3-yl)-1H-pyrazol-4-ylamino)pyrimidin-5-yl)ethyl)benzamide] | 0.006 µM | 0.075 µM | 0.759 µM | 0.008 µM | 0.29 µM | 0.008 µM
3 | CNC(=O)c1cc(CCc2cnc(Nc3cnn([C@H]4CCCNC4)c3)nc2)c(F)c(OC)c1 [Compound 163] | 0.006 µM | 0.06 µM | 0.584 µM | 0.007 µM | 0.201 µM | 0.008 µM
4 | CNC(=O)c1cc(CCc2cnc(Nc3cnn([C@@H]4CCCN(C)C4)c3)nc2)c(F)c(OC)c1 [Compound 165, (R)-4-fluoro-3-methoxy-N-methyl-5-(2-(2-(1-(1-methylpiperidin-3-yl)-1H-pyrazol-4-ylamino)pyrimidin-5-yl)ethyl)benzamide] | 0.007 µM | 0.023 µM | 0.106 µM | 0.011 µM | 0.056 µM | 0.007 µM
5 | CNC(=O)c1cc(CCc2cnc(Nc3cnn(C4CN(C)C4)c3)nc2)c(F)c(OC)c1 [Compound 166] | 0.013 µM | 0.057 µM | 0.592 µM | 0.02 µM | 0.069 µM | 0.015 µM
6 | CCN1CC(n2cc(Nc3ncc(CCc4cc(C(=O)NC)cc(OC)c4F)cn3)cn2)C1 [Compound 167] | 0.01 µM | 0.048 µM | 0.382 µM | 0.018 µM | 0.062 µM | 0.015 µM
7 | CNC(=O)c1cc(CCc2cnc(Nc3cnn([C@H]4CCN(C)C4)c3)nc2)c(F)c(OC)c1 [Compound 168] | 0.011 µM | 0.016 µM | 0.414 µM | 0.016 µM | 0.032 µM | 0.015 µM
8 | CNC(=O)c1cc(CCc2cnc(Nc3cnn([C@@H]4CCN(C)C4)c3)nc2)c(F)c(OC)c1 [Compound 169] | 0.014 µM | 0.018 µM | 0.539 µM | 0.015 µM | 0.017 µM | 0.015 µM
9 | CCN1CC[C@@H](n2cc(Nc3ncc(CCc4cc(C(=O)NC)cc(OC)c4F)cn3)cn2)C1 [Compound 171] | 0.041 µM | 0.048 µM | 0.655 µM | 0.043 µM | 0.128 µM | 0.05 µM
10 | CNC(=O)c1cc(CCc2cnc(Nc3cnn([C@H]4CCCN(C)C4)c3)nc2)c(F)c(OC)c1 [Compound 172] | 0.006 µM | 0.014 µM | 0.064 µM | 0.009 µM | 0.022 µM | 0.006 µM
11 | CNC(=O)c1cc(CCc2cnc(Nc3cnn(C4CCN(C)CC4)c3)nc2)c(F)c(OC)c1 [Compound 173] | 0.007 µM | 0.02 µM | 0.135 µM | 0.008 µM | 0.041 µM | 0.028 µM
12 | CCN1CCC[C@@H](n2cc(Nc3ncc(CCc4cc(C(=O)NC)cc(OC)c4F)cn3)cn2)C1 [Compound 174] | 0.006 µM | 0.017 µM | 0.065 µM | 0.01 µM | 0.04 µM | 0.005 µM
13 | CCN1CCC[C@H](n2cc(Nc3ncc(CCc4cc(C(=O)NC)cc(OC)c4F)cn3)cn2)C1 [Compound 175] | 0.006 µM | 0.014 µM | 0.057 µM | 0.009 µM | 0.023 µM | 0.008 µM
14 | CCN1CCC(n2cc(Nc3ncc(CCc4cc(C(=O)NC)cc(OC)c4F)cn3)cn2)CC1 [Compound 176] | 0.007 µM | 0.017 µM | 0.1 µM | 0.007 µM | 0.066 µM | 0.008 µM
15 | CNC(=O)c1cc(CCc2cnc(Nc3cnn(C4CCN(C)CC4)c3)nc2)c(Cl)c(OC)c1 [Compound 177] | 0.005 µM | 0.019 µM | 0.086 µM | 0.006 µM | 0.025 µM | 0.009 µM
16 | CCN1CCC(n2cc(Nc3ncc(CCc4cc(C(=O)NC)cc(OC)c4Cl)cn3)cn2)CC1 [Compound 178] | 0.015 µM | 0.027 µM | 0.186 µM | 0.014 µM | 0.072 µM | 0.018 µM

Row | SMILES | IC50 (Recombinant human FGFR2) | IC50 (SNU-16) | IC50 (RT-112) | IC50 (Recombinant human FGFR1) | IC50 (KG-1) | IC50 (FGFR3 kinase)
17 | CCn1cc(Nc2ncc(CCc3cc(C(=O)NC)cc(OC)c3C#N)cn2)cn1 [Compound 179, 4-cyano-3-(2-(2-((1-ethyl-1H-pyrazol-4-yl)amino)pyrimidin-5-yl)ethyl)-5-methoxy-N-methylbenzamide] | 0.056 µM | 0.202 µM | 0.952 µM | 0.069 µM | 0.284 µM | 0.091 µM
18 | CCn1cc(Nc2ncc(OCc3cc(C(=O)NC)cc(OC)c3F)cn2)cn1 [Compound 181, 3-(((2-((1-ethyl-1H-pyrazol-4-yl)amino)pyrimidin-5-yl)oxy)methyl)-4-fluoro-5-methoxy-N-methylbenzamide] | 0.005 µM | 0.008 µM | 0.035 µM | 0.019 µM | 0.026 µM | 0.009 µM
19 | CNC(=O)c1cc(COc2cnc(Nc3cnn(C)c3)nc2)c(F)c(OC)c1 [Compound 182] | 0.009 µM | 0.019 µM | 0.033 µM | 0.027 µM | 0.008 µM | 0.01 µM
20 | CONC(=O)c1cc(COc2cnc(Nc3cnn(C)c3)nc2)c(Cl)c(OC)c1 [Compound 185] | 0.003 µM | 0.002 µM | 0.005 µM | 0.005 µM | 0.002 µM | 0.004 µM
21 | CNC(=O)c1cc(COc2cnc(Nc3ccc(N4C[C@@H](C)N[C@@H](C)C4)cc3)nc2)c(Cl)c(OC)c1 [Compound 186, 4-chloro-3-(((2-((4-((3S,5R)-3,5-dimethylpiperazin-1-yl)phenyl)amino)pyrimidin-5-yl)oxy)methyl)-5-methoxy-N-methylbenzamide] | 0.004 µM | 0.007 µM | 0.007 µM | 0.005 µM | 0.01 µM | 0.005 µM
22 | CNC(=O)c1cc(COc2cnc(Nc3ccc(N4CCNCC4)cc3)nc2)c(F)c(OC)c1 [Compound 188] | 0.005 µM | 0.006 µM | 0.012 µM | 0.008 µM | 0.02 µM | 0.01 µM
23 | CCN(CC)CCn1cc(Nc2ncc(OCc3cc(C(=O)NC)cc(OC)c3F)cn2)cn1 [Compound 189] | 0.02 µM | 0.028 µM | 0.023 µM | 0.023 µM | 0.038 µM | 0.013 µM
24 | CCN(CC)CCn1cc(Nc2ncc(OCc3cc(C(=O)NC)cc(OC)c3Cl)cn2)cn1 [Compound 190] | 0.009 µM | 0.016 µM | 0.017 µM | 0.012 µM | 0.037 µM | 0.007 µM
25 | CNC(=O)c1cc(COc2ccc(Nc3ccc(N4C[C@@H](C)N[C@@H](C)C4)cc3)nc2)c(F)c(OC)c1 [Compound 191] | 0.068 µM | 0.534 µM | 0.54 µM | 0.181 µM | 0.647 µM | 0.334 µM
26 | CNC(=O)c1cc(COc2cnc(Nc3ccc(N4C[C@@H](C)N[C@@H](C)C4)cc3)nc2)c(F)c(OC)c1 [Compound 192] | 0.006 µM | 0.002 µM | 0.014 µM | 0.012 µM | 0.008 µM | 0.008 µM
27 | CNC(=O)c1cc(COc2cnc(Nc3ccc(N4CCNC(C)(C)C4)cc3)nc2)c(F)c(OC)c1 [Compound 193] | 0.005 µM | 0.017 µM | 0.021 µM | 0.008 µM | 0.062 µM | 0.011 µM
28 | CNC(=O)c1cc(COc2cnc(Nc3ccc(N4C[C@@H](C)N[C@@H](C)C4)c(C)c3)nc2)c(F)c(OC)c1 [Compound 194] | 0.014 µM | 0.031 µM | 0.027 µM | 0.014 µM | 0.06 µM | 0.02 µM
29 | CNC(=O)c1cc(COc2cnc(Nc3ccc(N4C[C@@H](C)N[C@@H](C)C4)c(F)c3)nc2)c(F)c(OC)c1 [Compound 195] | 0.006 µM | 0.016 µM | 0.025 µM | 0.012 µM | 0.025 µM | 0.012 µM
30 | CNC(=O)c1cc(CCc2cnc(Nc3ccc(N4CCNCC4)cc3)nc2)c(Cl)c(OC)c1 [Compound 196] | 0.005 µM | 0.014 µM | 0.02 µM | 0.006 µM | 0.051 µM | 0.009 µM
31 | CNC(=O)c1cc(COc2cnc(Nc3ccc(N4C[C@@H](C)N[C@@H](C)C4)nc3)nc2)c(Cl)c(OC)c1 [Compound 197] | 0.007 µM | 0.008 µM | 0.025 µM | 0.008 µM | 0.026 µM | 0.009 µM
32 | CNC(=O)c1cc(OC)c(F)c(COc2cnc(Nc3ccc(N4C[C@@H](C)N[C@@H](C)C4)cc3)nc2)c1F [Compound 199] | 0.007 µM | 0.018 µM | 0.041 µM | 0.013 µM | 0.02 µM | 0.008 µM
